In article PMC11062922 (Nature Chemical Biology, 2023):
Read-outs that look alike come from different tables or passages of the source.

Legend:
[1] = target: T1, CIT (Homo sapiens, UniProt O14578); assay: Kinobeads competition binding: CIT; conditions: target CIT
T1 construct: endogenous in cells
Excerpt: Supplement 41589_2023_1459_MOESM4_ESM.xlsx, sheet "CATDS matrix" | column: CIT

[2] = target: T2, NTRK1 (Homo sapiens, UniProt P04629); assay: Kinobeads competition binding: NTRK1; conditions: target NTRK1
T2 construct: endogenous in cells

[3] = target: T3, EPHB1 (Homo sapiens, UniProt P54762); assay: Kinobeads competition binding: EPHB1; conditions: target EPHB1
T3 construct: endogenous in cells
T3 sequence (P54762 18-984): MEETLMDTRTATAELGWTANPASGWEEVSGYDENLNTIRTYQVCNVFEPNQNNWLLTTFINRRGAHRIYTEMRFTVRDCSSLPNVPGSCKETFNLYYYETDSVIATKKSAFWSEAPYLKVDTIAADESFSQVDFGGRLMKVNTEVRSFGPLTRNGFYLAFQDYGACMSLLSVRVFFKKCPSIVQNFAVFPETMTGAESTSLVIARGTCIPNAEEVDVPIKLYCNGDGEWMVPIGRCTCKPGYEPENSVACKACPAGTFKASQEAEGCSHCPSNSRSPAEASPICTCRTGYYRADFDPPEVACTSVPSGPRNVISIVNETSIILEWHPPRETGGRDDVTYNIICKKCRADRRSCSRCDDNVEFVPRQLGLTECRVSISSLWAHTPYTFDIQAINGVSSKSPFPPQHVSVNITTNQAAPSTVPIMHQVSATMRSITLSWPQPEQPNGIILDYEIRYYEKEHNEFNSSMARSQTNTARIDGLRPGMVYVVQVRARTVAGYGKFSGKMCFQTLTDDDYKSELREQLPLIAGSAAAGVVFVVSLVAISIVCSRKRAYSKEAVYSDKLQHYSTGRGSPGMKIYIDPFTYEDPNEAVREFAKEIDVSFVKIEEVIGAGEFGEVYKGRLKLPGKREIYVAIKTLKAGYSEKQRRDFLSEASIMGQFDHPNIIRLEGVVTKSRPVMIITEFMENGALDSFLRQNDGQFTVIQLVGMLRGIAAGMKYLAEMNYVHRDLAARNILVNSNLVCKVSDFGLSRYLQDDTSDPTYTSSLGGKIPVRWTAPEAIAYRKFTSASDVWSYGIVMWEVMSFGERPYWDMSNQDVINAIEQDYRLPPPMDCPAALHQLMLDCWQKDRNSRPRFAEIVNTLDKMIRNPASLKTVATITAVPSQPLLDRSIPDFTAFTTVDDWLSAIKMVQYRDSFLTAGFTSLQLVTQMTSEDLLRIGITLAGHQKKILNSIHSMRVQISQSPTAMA
Excerpt: Supplement 41589_2023_1459_MOESM4_ESM.xlsx, sheet "CATDS matrix" | column: EPHB1

[4] = system: BRAF; assay: Kinobeads competition binding: BRAF; set-up: species or system human; conditions: target BRAF
[5] = target: T4, EPHA5 (Homo sapiens, UniProt P54756); assay: Kinobeads competition binding: EPHA5; conditions: target EPHA5
T4 construct: endogenous in cells
Excerpt: Supplement 41589_2023_1459_MOESM4_ESM.xlsx, sheet "CATDS matrix" | column: EPHA5

[6] = system: NQO2; assay: Kinobeads competition binding: NQO2; set-up: species or system human; conditions: target NQO2
[7] = system: MAP4K2; assay: Kinobeads competition binding: MAP4K2; set-up: species or system human; conditions: target MAP4K2
[8] = system: CLK2; assay: Kinobeads competition binding: CLK2; set-up: species or system human; conditions: target CLK2
[9] = target: T5, PIM1 (Homo sapiens, UniProt P11309); assay: Kinobeads competition binding: PIM1; conditions: target PIM1
T5 construct: a mixture of lysates from five cancer cell lines; endogenous in cells

[10] = target: T6, BUB1 (Homo sapiens, UniProt O43683); assay: Kinobeads competition binding: BUB1; conditions: target BUB1
T6 construct: endogenous in cells

[11] = target: T7, FRK (Homo sapiens, UniProt P42685); assay: Kinobeads competition binding: FRK; conditions: target FRK
T7 construct: endogenous in cells
Excerpt: Supplement 41589_2023_1459_MOESM4_ESM.xlsx, sheet "CATDS matrix" | column: FRK

[12] = target: T8, ACVR1 (Homo sapiens, UniProt Q04771); assay: Kinobeads competition binding: ACVR1; conditions: target ACVR1;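 further: target engagement share of this target among all targets at its Kdapp concentration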
T8 construct: to maximize the representation of endogenous proteins; endogenous in cells
T8 sequence (Q04771 21-509): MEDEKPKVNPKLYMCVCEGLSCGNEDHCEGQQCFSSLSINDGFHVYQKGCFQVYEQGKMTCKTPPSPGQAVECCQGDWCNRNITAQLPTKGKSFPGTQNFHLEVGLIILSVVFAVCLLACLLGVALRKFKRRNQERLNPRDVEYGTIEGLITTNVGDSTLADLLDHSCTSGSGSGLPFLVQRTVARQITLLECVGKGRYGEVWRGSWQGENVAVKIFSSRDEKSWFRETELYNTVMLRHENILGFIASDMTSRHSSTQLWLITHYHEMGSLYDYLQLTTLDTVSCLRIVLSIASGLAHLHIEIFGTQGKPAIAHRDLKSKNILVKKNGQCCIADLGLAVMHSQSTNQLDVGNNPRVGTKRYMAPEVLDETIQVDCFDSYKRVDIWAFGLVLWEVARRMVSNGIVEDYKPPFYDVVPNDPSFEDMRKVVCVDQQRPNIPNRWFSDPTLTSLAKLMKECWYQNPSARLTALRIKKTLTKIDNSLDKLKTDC
Excerpt: Supplement 41589_2023_1459_MOESM4_ESM.xlsx, sheet "CATDS matrix" | column: ACVR1

[13] = system: HSP90AA1; assay: Kinobeads competition binding: HSP90AA1; set-up: species or system human; conditions: target HSP90AA1;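 further: share of total target engagement due to this protein at one drug concentration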
[14] = system: LIMK1; assay: Kinobeads competition binding: LIMK1; set-up: species or system human; conditions: target LIMK1
[15] = system: MAPK9; assay: Kinobeads competition binding: MAPK9; set-up: species or system human; conditions: target MAPK9
[16] = system: DDR2; assay: Kinobeads competition binding: DDR2; set-up: species or system human; conditions: target DDR2;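 further: target engagement share of this target among all targets at its Kdapp concentration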
[17] = target: PKN3 (Homo sapiens, UniProt Q6P5Z2); assay: Kinobeads full dose-response competition binding: PKN3; set-up: endogenous in cells; conditions: for Relative Intensity 0.3nM: 0.3nM compound; for Relative Intensity 0.3nM / Relative Intensity 1nM / Relative Intensity 3nM / Relative Intensity 10nM / Relative Intensity 30nM / Relative Intensity 100nM / Relative Intensity 300nM / Relative Intensity 1000nM: DMSO = 1; for Relative Intensity 1nM: 1nM compound; for Relative Intensity 3nM: 3nM compound; for Relative Intensity 10nM: 10nM compound; for Relative Intensity 30nM: 30nM compound; for Relative Intensity 100nM: 100nM compound; for Relative Intensity 300nM: 300nM compound; for Relative Intensity 1000nM: 1000nM compound; for EC50: eight-dose curve fit;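 on all read-outs here: inhibitor pre-incubated 45 min at 4 °C in cell lysate (5 mg/ml protein), then competed against Kinobeads ε pulldown for 30 min, bound kinase quantified by nano LC–MS/MS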
[18] = Gene Name PKN3, EC50 with Correction, doses in nM, read-out: apparent Kd
[19] = Kinobeads full dose-response, read-out: Kdapp PKN3

Row | Compound | CATDS [1] | CATDS [2] | CATDS [3] | CATDS [4] | CATDS [5] | CATDS [6] | CATDS [7] | CATDS [8] | CATDS [9] | CATDS [10] | CATDS [11] | CATDS [12] | CATDS [13] | CATDS [14] | CATDS [15] | CATDS [16] | Relative Intensity 0.3nM ([17]; Gene Name PKN3) | Relative Intensity 1nM ([17]; Gene Name PKN3) | Relative Intensity 3nM ([17]; Gene Name PKN3) | Relative Intensity 10nM ([17]; Gene Name PKN3) | also measured
1 | Nc1ncnc2[nH]c(-c3ccccc3)nc12 [AH5015_KCGS] | 0 | 0 | 0 | 0 | 0.02942 | 0 | 0 | 0 | 0 | 0 | 0 | 0 | 0 | 0 | 0 | 0 | – | – | – | – | –
2 | CCN1CCN(Cc2ccc(Nc3ncc(F)c(-c4cc(F)c5nc(C)n(C(C)C)c5c4)n3)nc2)CC1 [Abemaciclib] | 0.02291 | 0 | 0 | 0 | 0 | 0 | 0 | 0 | 0.03255 | 0 | 0 | 0 | 0 | 0 | 0 | 0 | – | – | – | – | –
3 | CN(C)C/C=C/C(=O)Nc1cc2c(Nc3ccc(F)c(Cl)c3)ncnc2cc1O[C@H]1CCOC1 [Afatinib] | 0 | – | 0 | – | 0 | 0 | – | – | – | – | 0 | 0 | 0 | – | – | – | – | – | – | – | –
4 | CCc1cc2c(cc1N1CCC(N3CCOCC3)CC1)C(C)(C)c1[nH]c3cc(C#N)ccc3c1C2=O [Alectinib] | 0 | 0 | 0 | 0 | 0 | 0 | 0 | 0 | 0 | 0 | 0 | 0 | 0 | 0 | 0 | 0 | – | – | – | – | –
5 | N#CC1(c2ccc(NC(=O)c3cccnc3NCc3ccncc3)cc2)CCCC1 [Apatinib] | 0 | 0 | 0 | 0 | 0 | 0 | 0 | 0 | 0 | 0 | 0 | 0 | 0 | 0 | 0 | 0 | – | – | – | – | –
6 | CCn1c(-c2nonc2N)nc2c(C#CC(C)(C)O)nc(OCCN)cc21 [GSK902056A] | – | – | – | – | – | – | – | – | – | – | – | – | – | – | – | – | 1.0043 | 0.9527 | 0.8181 | 0.5011 | Relative Intensity 30nM ([17]; Gene Name PKN3): 0.201; Relative Intensity 100nM ([17]; Gene Name PKN3): 0; Relative Intensity 300nM ([17]; Gene Name PKN3): 0; Relative Intensity 1000nM ([17]; Gene Name PKN3): 0; Kd [17, 18]: 10.2 nM; EC50 ([17]; Gene Name PKN3, doses in nM): 10.2 nM; Kd [17, 19]: 10 nM
7 | CCn1c(-c2nonc2N)nc2c(C#CC(C)(C)O)nc(OCCNC)cc21 [GSK949675A] | – | – | – | – | – | – | – | – | – | – | – | – | – | – | – | – | 1.302 | 1.271 | 1.02 | 1.139 | Relative Intensity 30nM ([17]; Gene Name PKN3): 0.7655; Relative Intensity 100nM ([17]; Gene Name PKN3): 0.7191; Relative Intensity 300nM ([17]; Gene Name PKN3): 0; Relative Intensity 1000nM ([17]; Gene Name PKN3): 0; Kd [17, 18]: 89.8 nM; EC50 ([17]; Gene Name PKN3, doses in nM): 89.8 nM; Kd [17, 19]: 90 nM
8 | NCc1ccc(-c2nc(-c3ccncc3)c(-c3ccc(Cl)c(O)c3)[nH]2)cc1 [SB-476429-A] | – | – | – | – | – | – | – | – | – | – | – | – | – | – | – | – | 1.299 | 1.281 | 1.311 | 1.076 | Relative Intensity 30nM ([17]; Gene Name PKN3): 0.6326; Relative Intensity 100nM ([17]; Gene Name PKN3): 0.3718; Relative Intensity 300nM ([17]; Gene Name PKN3): 0; Relative Intensity 1000nM ([17]; Gene Name PKN3): 0; Kd [17, 18]: 38.4 nM; EC50 ([17]; Gene Name PKN3, doses in nM): 38.4 nM; Kd [17, 19]: 38 nM
